In ChEMBL document CHEMBL2029206, “Design, synthesis and biological evaluation of potent NAD+-dependent DNA ligase inhibitors as potential antibacterial agents. Part 2: 4-amino-pyrido[2,3-d]pyrimidin-5(8H)-ones” (Bioorg Med Chem Lett, 2012):
Converted amounts (≈) assume the structure as drawn. The source made the active and inactive calls. The rule behind the calls is not given here.

Columns and labels:
Escherichia coli = experiment: Antibacterial activity against wild-type Escherichia coli; type: functional, organism-based
[1] = Inhibition of Escherichia coli NAD+dependent DNA ligase
[2] = Inhibition of human ATP-dependent DNA ligase
Staphylococcus aureus = experiment: Antibacterial activity against Staphylococcus aureus ATCC 29213; type: functional
Streptococcus pneumoniae = experiment: Antibacterial activity against Streptococcus pneumoniae ATCC 10015; type: functional
Haemophilus influenzae = experiment: Antibacterial activity against Haemophilus influenzae ATCC 51907; type: functional

| SMILES | Activity (Escherichia coli) | IC50 [1] | IC50 [2] | MIC (Staphylococcus aureus) | MIC (Streptococcus pneumoniae) | MIC (Haemophilus influenzae) |
| --- | --- | --- | --- | --- | --- | --- |
| Nc1nc(OCCF)nc2c1c(=O)ccn2CCO | inactive | 1950 nM | > 55000 nM |  |  |  |
| C[C@H]1CCCC[C@H]1Oc1nc(N)c2c(=O)ccn(CCC#N)c2n1 (relative stereo) | inactive | 36 nM | > 55000 nM | > 100 µM | > 100 µM |  |
| C[C@H]1CCCC[C@H]1Oc1nc(N)c2c(=O)ccn(CC3CC=CC3)c2n1 (relative stereo) | inactive | 20 nM | > 55000 nM | > 100 µM | > 100 µM |  |
| C[C@H]1CCCC[C@H]1Oc1nc(N)c2c(=O)ccn([C@@H]3CCCC[C@H]3O)c2n1 | inactive | 110 nM | > 55000 nM | 100 µM (≈ 37.2 µg/mL) | 75 µM (≈ 27.9 µg/mL) |  |
| Nc1nc(SC2CCCC2)nc2c1c(=O)ccn2CCO | inactive | 350 nM | > 55000 nM |  |  |  |
| C[C@H]1CC[C@H](Oc2nc(N)c3c(=O)ccn(Cc4ccc(C(=O)O)s4)c3n2)CC1 | inactive | 490 nM | > 55000 nM | > 100 µM | 83.3 µM (≈ 34.5 µg/mL) | 25 µM (≈ 10.4 µg/mL) |
| CC1CCC(Oc2nc(N)c3c(=O)ccn([C@H]4CCC[C@@H]4O)c3n2)C(C)C1 (relative stereo) | inactive | 170 nM | > 55000 nM | > 100 µM | 16.7 µM (≈ 6.22 µg/mL) | 50 µM (≈ 18.6 µg/mL) |
| C[C@H]1CCCC[C@H]1Oc1nc(N)c2c(=O)ccn(CC(O)CF)c2n1 (relative stereo) | inactive | 28 nM | > 55000 nM | > 100 µM | 100 µM (≈ 35 µg/mL) |  |
| Nc1nc(SC2CCCC2)nc2c1c(=O)ccn2[C@H]1CCC[C@@H]1O (relative stereo) | inactive | 63 nM | > 55000 nM | 25 µM (≈ 8.66 µg/mL) | > 100 µM | > 100 µM |
| C[C@H]1CC[C@H](Oc2nc(N)c3c(=O)ccn([C@H]4CC(C(N)=O)C[C@@H]4O)c3n2)CC1 (stereo partly specified) | inactive | 48 nM | > 55000 nM | > 100 µM | 20.8 µM (≈ 8.35 µg/mL) | 100 µM (≈ 40.1 µg/mL) |
| Nc1nc(OC2CCC(Cl)CC2)nc2c1c(=O)ccn2[C@H]1CCC[C@@H]1O (relative stereo) | inactive | 41 nM | > 55000 nM | 50 µM (≈ 18.9 µg/mL) | 6.3 µM (≈ 2.39 µg/mL) | 75 µM (≈ 28.4 µg/mL) |
| Nc1nc(OC2CCC(C(F)(F)F)CC2)nc2c1c(=O)ccn2[C@H]1CCC[C@@H]1O (relative stereo) | inactive | 350 nM | > 55000 nM | 50 µM (≈ 20.6 µg/mL) | 8.4 µM (≈ 3.46 µg/mL) | > 100 µM |
| C[C@H]1CC[C@H](Oc2nc(N)c3c(=O)ccn(C4[C@@H](O)CC[C@@H]4O)c3n2)CC1 | inactive | 76 nM | > 55000 nM | 25 µM (≈ 9.36 µg/mL) | 5.2 µM (≈ 1.95 µg/mL) | 100 µM (≈ 37.4 µg/mL) |
| Nc1nc(NC2CCCC2)nc2c1c(=O)ccn2CCO | inactive | > 10000 nM | > 55000 nM |  |  |  |
| C[C@H]1CCCC[C@H]1Oc1nc(N)c2c(=O)ccn([C@@H]3COC[C@H]3O)c2n1 | inactive | 38 nM | > 55000 nM | 100 µM (≈ 36 µg/mL) | 100 µM (≈ 36 µg/mL) |  |
| C[C@@H]1CCCC[C@@H]1Oc1nc(N)c2c(=O)ccn(CCO)c2n1 (relative stereo) | inactive | 57 nM | > 55000 nM |  |  |  |

| SMILES | Activity (Escherichia coli) | IC50 [1] | IC50 [2] | MIC (Staphylococcus aureus) | MIC (Streptococcus pneumoniae) | MIC (Haemophilus influenzae) |
| --- | --- | --- | --- | --- | --- | --- |
| C[C@H]1CCCC[C@H]1Oc1nc(N)c2c(=O)ccn([C@@H]3CCC[C@H]3O)c2n1 | inactive | 40 nM | > 55000 nM | 100 µM (≈ 35.8 µg/mL) | 50 µM (≈ 17.9 µg/mL) |  |
| Nc1nc(OC(CF)CF)nc2c1c(=O)ccn2CCO | inactive | 310 nM | > 55000 nM |  |  |  |
| C[C@H]1CCCC[C@H]1Oc1nc(N)c2c(=O)ccn([C@@H]3CC[C@@H]4C[C@H]3OC4=O)c2n1 | inactive | 28 nM | > 55000 nM | > 100 µM | > 100 µM |  |
| C[C@H]1CC[C@H](Oc2nc(N)c3c(=O)ccn([C@H]4CCC[C@@H]4O)c3n2)CC1 | inactive | 39 nM | > 55000 nM | 18.8 µM (≈ 6.74 µg/mL) | 6.3 µM (≈ 2.26 µg/mL) | 75 µM (≈ 26.9 µg/mL) |
| C[C@H]1CC[C@H](Oc2nc(N)c3c(=O)ccn([C@H]4CC[C@H](O)[C@@H]4O)c3n2)CC1 | inactive | 225 nM | > 55000 nM | 25 µM (≈ 9.36 µg/mL) | 4.2 µM (≈ 1.57 µg/mL) | > 100 µM |
| C[C@H]1CCCC[C@H]1Oc1nc(N)c2c(=O)ccn(CC3C[C@@H](O)[C@@H](O)C3)c2n1 (stereo partly specified) | inactive | 68 nM | > 55000 nM | > 100 µM | > 100 µM |  |
| C[C@H]1CC[C@H](Oc2nc(N)c3c(=O)ccn([C@H]4CC(C(=O)O)C[C@@H]4O)c3n2)CC1 (stereo partly specified) | inactive | 51 nM | > 55000 nM | > 100 µM | 83.3 µM (≈ 33.5 µg/mL) | > 100 µM |
| C[C@H]1CCCC[C@H]1Oc1nc(N)c2c(=O)ccn(CC#N)c2n1 (relative stereo) | inactive | 20 nM | > 55000 nM | > 100 µM | > 100 µM |  |
| C[C@H]1CCCC[C@H]1Oc1nc(N)c2c(=O)ccn(Cc3ccc(C(=O)O)cc3)c2n1 (relative stereo) | inactive | 19 nM | > 55000 nM | > 100 µM | > 100 µM |  |
| C[C@H]1CCCC[C@H]1Oc1nc(N)c2c(=O)ccn(CC(O)CO)c2n1 (relative stereo) | inactive | 79 nM | > 55000 nM | > 100 µM | > 100 µM |  |
| Nc1nc(OC2CCCC2)nc2c1c(=O)ccn2CCO | inactive | 510 nM | > 55000 nM |  |  |  |
| C[C@H]1CCCC[C@H]1Oc1nc(N)c2c(=O)ccn(Cc3cn[nH]c3)c2n1 (relative stereo) | inactive | 36 nM | > 55000 nM | > 100 µM | > 100 µM |  |
| C[C@H]1CC[C@H](Oc2nc(N)c3c(=O)ccn([C@@H]4CCC[C@H]4O)c3n2)CC1 | inactive | 190 nM | > 55000 nM | 37.5 µM (≈ 13.4 µg/mL) | 3.1 µM (≈ 1.11 µg/mL) | 100 µM (≈ 35.8 µg/mL) |
| CC(C)Oc1nc(N)c2c(=O)ccn(CCO)c2n1 | inactive | 1060 nM | > 55000 nM |  |  |  |
| Nc1nc(OC2CCC3(CC2)OCCO3)nc2c1c(=O)ccn2[C@H]1CCC[C@@H]1O (relative stereo) | inactive | 90 nM | > 55000 nM | > 100 µM | 50 µM (≈ 20.1 µg/mL) | > 100 µM |
| C[C@H]1CC[C@H](Oc2nc(N)c3c(=O)ccn(CCO)c3n2)CC1 | inactive | 420 nM | > 55000 nM |  |  |  |
